Laboratory results from paper PMC8895403, “A Strategy to Select Macrocyclic Peptides Featuring Asymmetric Molecular Scaffolds as Cyclization Units by Phage Display” (Journal of the American Chemical Society, 2022).

Test: Head-to-side-chain cyclisation: Cys S-alkylation with bifunctional aldehyde linker 1-4 (benzyl bromide or bromoacetamide), then intramolecular reductive amination of the N-terminal amine with NaBH3CN (one pot, crude peptides)
Details: the molecule shown is the open-chain precursor, 100 mM MOPS pH 6.5 / about 20% MeCN, TCEP, 0.5 mM, 4.0 °C, 24.0 h, 2 steps, scale: 1 = smooth/efficient conversion to macrocycle as major UPLC-MS species, <1 = partial, mixture

Q: With `COc1ccc(C=O)cc1NC(=O)CSC[C@H](NC(=O)CNC(=O)[C@H](CO)NC(=O)CNC(=O)CNC(=O)[C@H](CO)NC(=O)[C@H](CO)NC(=O)[C@@H](NC(=O)[C@H](C)N)C(C)C)C(=O)N[C@@H](Cc1c[nH]c2ccccc12)C(=O)N[C@@H](C)C(N)=O` as the compound, how does the ring closure, product found (35-membered ring) read?
A: The ring closure, product found was 1.

Q: With `CC(C)[C@H](NC(=O)[C@H](C)N)C(=O)N[C@@H](CC(N)=O)C(=O)N[C@@H](CCC(=O)O)C(=O)N[C@@H](CCCCN)C(=O)N[C@@H](Cc1c[nH]cn1)C(=O)N[C@@H](Cc1ccc(O)cc1)C(=O)N[C@@H](CSCC(=O)Nc1ccc2cc(C=O)ccc2c1)C(=O)N[C@@H](Cc1c[nH]c2ccccc12)C(=O)N[C@@H](C)C(N)=O` as the compound, how does the ring closure, product found (35-membered ring) read?
A: Its ring closure, product found is 1.

Q: Which ring closure, product found (28-membered ring) does the source give for `CC(C)[C@H](NC(=O)[C@H](C)N)C(=O)N[C@@H](CO)C(=O)N[C@@H](CO)C(=O)NCC(=O)NCC(=O)N[C@@H](CSCc1ccc(C=O)cc1)C(=O)N[C@@H](Cc1c[nH]c2ccccc12)C(=O)N[C@@H](C)C(N)=O` [H-Ala-Val-Ser-Ser-Gly-Gly-Cys(CH2-C6H4-4-CHO)-Trp-Ala-NH2] here?
A: The ring closure, product found was 1.

Q: With `CC(C)[C@H](NC(=O)[C@H](C)N)C(=O)N[C@@H](CO)C(=O)N[C@@H](CO)C(=O)NCC(=O)NCC(=O)N[C@@H](CSCC(=O)Nc1ccc2cc(C=O)ccc2c1)C(=O)N[C@@H](Cc1c[nH]c2ccccc12)C(=O)N[C@@H](C)C(N)=O` as the compound, how does the ring closure, product found (32-membered ring) read?
A: Its ring closure, product found is 1.

Q: For `COc1ccc(C=O)cc1NC(=O)CSC[C@H](NC(=O)CNC(=O)CNC(=O)[C@H](CO)NC(=O)[C@H](CO)NC(=O)[C@@H](NC(=O)[C@@H](N)CCCCN)C(C)C)C(=O)N[C@@H](Cc1c[nH]c2ccccc12)C(=O)N[C@@H](C)C(N)=O`, which ring closure, product found (29-membered ring) is on record?
A: Its ring closure, product found is 1.

Q: For `COc1ccc(C=O)cc1NC(=O)CSC[C@H](NC(=O)CNC(=O)CNC(=O)[C@H](CO)NC(=O)[C@H](CO)NC(=O)[C@@H](NC(=O)[C@H](CCCCN)NC(C)=O)C(C)C)C(=O)N[C@@H](Cc1c[nH]c2ccccc12)C(=O)N[C@@H](C)C(N)=O`, which ring closure, product found (33-membered ring) is on record?
A: Its ring closure, product found is less than 1.

Q: For `CC(C)[C@H](NC(=O)[C@H](C)N)C(=O)N[C@@H](CO)C(=O)N[C@@H](CO)C(=O)NCC(=O)NCC(=O)N[C@@H](CO)C(=O)NCC(=O)N[C@@H](CSCc1ccc(C=O)cc1)C(=O)N[C@@H](Cc1c[nH]c2ccccc12)C(=O)N[C@@H](C)C(N)=O`, which ring closure, product found (34-membered ring) is on record?
A: Its ring closure, product found is 1.

Q: Which ring closure, product found (30-membered ring) does the source give for `CC(C)[C@H](NC(=O)[C@H](C)N)C(=O)N[C@@H](CO)C(=O)N[C@@H](CO)C(=O)NCC(=O)NCC(=O)N[C@@H](CSCC(=O)Nc1ccc(C=O)cc1)C(=O)N[C@@H](Cc1c[nH]c2ccccc12)C(=O)N[C@@H](C)C(N)=O` here?
A: Its ring closure, product found is 1.

Q: For `CC(C)[C@H](NC(=O)[C@H](C)N)C(=O)N[C@@H](CO)C(=O)N[C@@H](CO)C(=O)NCC(=O)NCC(=O)N[C@@H](CO)C(=O)NCC(=O)N[C@@H](CSCC(=O)Nc1ccc2cc(C=O)ccc2c1)C(=O)N[C@@H](Cc1c[nH]c2ccccc12)C(=O)N[C@@H](C)C(N)=O`, which ring closure, product found (38-membered ring) is on record?
A: Its ring closure, product found is 1.

Q: For `CC(=O)N[C@@H](CCCCN)C(=O)N[C@H](C(=O)N[C@@H](CO)C(=O)N[C@@H](CO)C(=O)NCC(=O)NCC(=O)N[C@@H](CSCc1ccc(C=O)cc1)C(=O)N[C@@H](Cc1c[nH]c2ccccc12)C(=O)N[C@@H](C)C(N)=O)C(C)C` [Ac-Lys-Val-Ser-Ser-Gly-Gly-Cys(CH2-C6H4-4-CHO)-Trp-Ala-NH2], which ring closure, product found (32-membered ring) is on record?
A: The ring closure, product found was less than 1.

Q: For `CC(C)[C@H](NC(=O)[C@H](C)N)C(=O)N[C@@H](CO)C(=O)N[C@@H](CO)C(=O)NCC(=O)NCC(=O)N[C@@H](CO)C(=O)NCC(=O)N[C@@H](CSCC(=O)Nc1ccc(C=O)cc1)C(=O)N[C@@H](Cc1c[nH]c2ccccc12)C(=O)N[C@@H](C)C(N)=O`, which ring closure, product found (36-membered ring) is on record?
A: Its ring closure, product found is 1.

Q: For `COc1ccc(C=O)cc1NC(=O)CSC[C@H](NC(=O)CNC(=O)CNC(=O)[C@H](CO)NC(=O)[C@H](CO)NC(=O)[C@@H](NC(=O)[C@H](C)N)C(C)C)C(=O)N[C@@H](Cc1c[nH]c2ccccc12)C(=O)N[C@@H](C)C(N)=O`, which ring closure, product found (29-membered ring) is on record?
A: The ring closure, product found was 1.

Q: Which ring closure, product found (32-membered ring) does the source give for `CC(C)[C@H](NC(=O)[C@@H](N)CCCCN)C(=O)N[C@@H](CO)C(=O)N[C@@H](CO)C(=O)NCC(=O)NCC(=O)N[C@@H](CSCC(=O)Nc1ccc2cc(C=O)ccc2c1)C(=O)N[C@@H](Cc1c[nH]c2ccccc12)C(=O)N[C@@H](C)C(N)=O` here?
A: Its ring closure, product found is 1.
